Assay: HPLC analysis of oil (top) and aqueous (bottom) layers of centrifuged O/W emulsions
Type: physicochemical
Conditions: control or Bottom layer-Water; target 8.00 mg/mL
Description: O/W emulsions were prepared by combining the hydrophobic phase (DPX-empty in Montanide™ ISA 51 oil) and the aqueous phase (containing an aqueous phase agent) with 120 passes through a Vygon™ connector.
For analysis by High Performance Liquid Chromatography (HPLC), the O/W emulsion formulations were centrifuged at 15,000 RPM for 30 minutes to separate oil (top) and aqueous (bottom) layers, and samples from both layers were analysed. Samples were prepared using n-Butanol Extraction method (for oil phase) and Total solubilization method (for aqueous phase). n-Butanol Extraction method (for oil phase): To 100 μL of the top layer oil sample 300 μL of 0.1M NaHCO3 and 400 μL of water saturated 1-Butanol were added. Sample was vortexed to mix and centrifuged for 2 mins at 5000 RPM. The bottom layer was taken for analysis. Total solubilization method (for aqueous phase): To 75 μL of the bottom layer aqueous sample, up to 5 mL of mobile phase A was added. The mobile phases used for cyclophosphamide, oligonucleotide and anti-CTLA4 analysis were as follows, Cyclophosphamide: Mobile Phase A: 30% acetonitrile in water; Mobile Phase B: methanol. Oligonucleotide: Mobile Phase A: mix of tris, acetonitrile, water; Mobile Phase B: mix of tris, NaCL, acetonitrile, water. Anti-CTLA4: Mobile Phase A: 0.1% TFA/water; Mobile Phase B: 0.1% TFA/acetonitrile; Mobile Phase C: methanol. […]

For `O=P1(N(CCCl)CCCl)NCCCO1` (stereo not shown) [Cyclophosphamide control, N,N-bis(2-chloroethyl)-1,3,2-oxazaphosphinan-2-amine 2-oxide], the “Cyclophosphamide Concentration” value was 6.76 mg/mL.

Reference: patent US20230000769A1, “OIL-IN-WATER EMULSION FORMULATIONS FOR DELIVERY OF ACTIVE OR THERAPEUTIC AGENTS” (IMMUNOVACCINE TECHNOLOGIES INC., priority 2019, published 2023)
